Broadly, the IC50 is the concentration needed to halve the response being measured. As a reminder, the Km is the concentration of substrate that gives half-maximal velocity.

This is an account of results in paper PMC8948214, “Transport efficiency of AtGTR1 dependents on the hydrophobicity of transported glucosinolates” (Scientific Reports, 2022).

The target in series [1] is T1, AtGTR1 (Arabidopsis thaliana, UniProt Q944G5).
T1 construct: gene NPF2.10; full-length synthesized cDNA with C-terminal 8-His-tag in pESC-URA; expressed in S. cerevisiae FGY217; theoretical 68 kDa; homodimer after purification
T1 sequence (Q944G5 31-636): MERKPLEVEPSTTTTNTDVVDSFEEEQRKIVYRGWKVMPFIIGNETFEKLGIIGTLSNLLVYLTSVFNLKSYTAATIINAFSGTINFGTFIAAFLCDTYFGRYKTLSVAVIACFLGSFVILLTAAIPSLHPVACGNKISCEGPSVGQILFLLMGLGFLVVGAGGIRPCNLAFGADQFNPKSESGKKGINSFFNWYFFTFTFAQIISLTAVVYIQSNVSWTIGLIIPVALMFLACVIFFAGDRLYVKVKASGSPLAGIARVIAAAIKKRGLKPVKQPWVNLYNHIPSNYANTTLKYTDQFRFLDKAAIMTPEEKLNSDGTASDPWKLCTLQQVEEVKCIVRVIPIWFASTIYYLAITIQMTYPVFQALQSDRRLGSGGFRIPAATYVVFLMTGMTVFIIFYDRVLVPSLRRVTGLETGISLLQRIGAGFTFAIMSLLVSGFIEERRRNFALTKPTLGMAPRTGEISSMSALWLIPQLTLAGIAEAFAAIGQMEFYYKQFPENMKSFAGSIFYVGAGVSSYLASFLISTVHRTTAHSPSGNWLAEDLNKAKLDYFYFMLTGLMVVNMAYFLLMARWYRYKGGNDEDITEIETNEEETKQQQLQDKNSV
Put plainly: inhibition of glucotropaeolin uptake in yeast, RP-HPLC. It counts as cell-based.

Substrate in series [2]: O=S(=O)(O)O/N=C(/Cc1c[nH]c2ccccc12)S[C@@H]1O[C@H](CO)[C@@H](O)[C@H](O)[C@H]1O
Put plainly: yeast uptake assay, RP-HPLC of desulfo-glucosinolate. It counts as cell-based, Arabidopsis thaliana. To be noted: 15 min uptake, 2.5-320 μM substrate, pH 5.5, 30 °C, proton-coupled, apparent.

Substrate in series [3]: O=S(=O)(O)O/N=C(\Cc1ccccc1)S[C@@H]1O[C@H](CO)[C@@H](O)[C@H](O)[C@H]1O
The description is as above. Type of series: cell-based, Arabidopsis thaliana. The settings on record: 15 min uptake, 2.5-320 μM substrate, pH 5.5, 30 °C, proton-coupled, apparent.

Consider `O=C(O)Cc1c[nH]c2ccccc12` [IAA, 3-indoleacetic acid], for which inhibition in series [1] was half-maximal at 762 ± 48.1 µM (IC50).

Take `CC/C=C\C[C@H]1C(=O)CC[C@@H]1CC(=O)O` [JA, jasmonic acid]: half-maximal inhibition in series [1] (IC50) was put at 938 ± 114 µM.

For the molecule `O=C(O)c1ccccc1O` [SA, salicylic acid], in series [1], the concentration for half-maximal inhibition (IC50) was 630 ± 47.5 µM.

B1: AtGTR1 (Arabidopsis thaliana) (protein)
chain: MERKPLEVEPSTTTTNTDVVDSFEEEQRKIVYRGWKVMPFIIGNETFEKLGIIGTLSNLLVYLTSVFNLKSYTAATIINAFSGTINFGTFIAAFLCDTYFGRYKTLSVAVIACFLGSFVILLTAAIPSLHPVACGNKISCEGPSVGQILFLLMGLGFLVVGAGGIRPCNLAFGADQFNPKSESGKKGINSFFNWYFFTFTFAQIISLTAVVYIQSNVSWTIGLIIPVALMFLACVIFFAGDRLYVKVKASGSPLAGIARVIAAAIKKRGLKPVKQPWVNLYNHIPSNYANTTLKYTDQFRFLDKAAIMTPEEKLNSDGTASDPWKLCTLQQVEEVKCIVRVIPIWFASTIYYLAITIQMTYPVFQALQSDRRLGSGGFRIPAATYVVFLMTGMTVFIIFYDRVLVPSLRRVTGLETGISLLQRIGAGFTFAIMSLLVSGFIEERRRNFALTKPTLGMAPRTGEISSMSALWLIPQLTLAGIAEAFAAIGQMEFYYKQFPENMKSFAGSIFYVGAGVSSYLASFLISTVHRTTAHSPSGNWLAEDLNKAKLDYFYFMLTGLMVVNMAYFLLMARWYRYKGGNDEDITEIETNEEETKQQQLQDKNSV
notes: full-length synthesized cDNA with C-terminal 8-His-tag in pESC-URA; expressed in S. cerevisiae FGY217; theoretical 68 kDa; homodimer after purification
For the molecule B1, the values for the Km in series [2] and in series [3] were 8.2 ± 0.60 µM and 13.6 ± 1.55 µM, respectively.
